Legend:
HepG2 = experiment: Antiproliferative activity against human HepG2 cells assessed as inhibition of cell growth at 12.5 ug/ml measured after 48 hrs by real-time cell analysis relative to control; assay type: functional; details: read-out: GI
A549 = experiment: Antiproliferative activity against human A549 cells assessed as inhibition of cell growth at 12.5 ug/ml measured after 48 hrs by real-time cell analysis relative to control; assay type: functional; details: read-out: GI
Mus musculus [1] = experiment: Anti-insomnia activity pentobarbital-induced mouse model of insomnia assessed as time of sleep duration at 32 mg/kg, ig administered daily for 15 days followed by pentobarbital addition at 1 hr post last dose (reference value: 17.1 +/- 5.15 min); assay type: functional; details: time 15 day
Mus musculus [2] = experiment: Anti-insomnia activity pentobarbital-induced mouse model of insomnia assessed as sleep rate at 8 mg/kg, ig administered daily for 15 days followed by pentobarbital addition at 1 hr post last dose relative to control; assay type: functional; details: time 15 day
Mus musculus [3] = experiment: Anti-insomnia activity pentobarbital-induced mouse model of insomnia assessed as time of sleep latency at 16 mg/kg, ig administered daily for 15 days followed by pentobarbital addition at 1 hr post last dose (reference value: 8.1 +/- 6.06 min); assay type: functional; details: time 15 day
Mus musculus [4] = experiment: Anti-insomnia activity pentobarbital-induced mouse model of insomnia assessed as number of forelimb lifts at 32 mg/kg, ig administered daily for 15 days followed by pentobarbital addition at 1 hr post last dose (reference value: 9.2 +/- 4.31); assay type: functional; details: time 15 day
Mus musculus [5] = experiment: Anti-insomnia activity pentobarbital-induced ig dosed mouse model of insomnia assessed as reduction in time before sleep administered daily for 15 days followed by pentobarbital addition at 1 hr post last dose; assay type: functional, organism-based; details: dose 8-32 mg/kg, time 15.0 day
Mus musculus [6] = experiment: Anti-insomnia activity pentobarbital-induced mouse model of insomnia assessed as time of sleep latency at 8 mg/kg, ig administered daily for 15 days followed by pentobarbital addition at 1 hr post last dose (reference value: 8.1 +/- 6.06 min); assay type: functional; details: time 15 day
Mus musculus [7] = experiment: Anti-insomnia activity pentobarbital-induced mouse model of insomnia assessed as time of sleep duration at 16 mg/kg, ig administered daily for 15 days followed by pentobarbital addition at 1 hr post last dose (reference value: 17.1 +/- 5.15 min); assay type: functional; details: time 15 day
Mus musculus [8] = experiment: Anti-insomnia activity pentobarbital-induced mouse model of insomnia assessed as number of forelimb lifts at 8 mg/kg, ig administered daily for 15 days followed by pentobarbital addition at 1 hr post last dose (reference value: 9.2 +/- 4.31); assay type: functional; details: time 15 day
Mus musculus [9] = experiment: Anti-insomnia activity pentobarbital-induced mouse model of insomnia assessed as number of forelimb lifts at 16 mg/kg, ig administered daily for 15 days followed by pentobarbital addition at 1 hr post last dose (reference value: 9.2 +/- 4.31); assay type: functional; details: time 15 day
Mus musculus [10] = experiment: Anti-insomnia activity pentobarbital-induced ig dosed mouse model of insomnia assessed as increase in sleep time administered daily for 15 days followed by pentobarbital addition at 1 hr post last dose; assay type: functional, organism-based; details: dose 8-32 mg/kg, time 15.0 day
Mus musculus [11] = experiment: Anti-insomnia activity pentobarbital-induced mouse model of insomnia assessed as sleep rate at 16 mg/kg, ig administered daily for 15 days followed by pentobarbital addition at 1 hr post last dose relative to control; assay type: functional; details: time 15 day
Mus musculus [12] = experiment: Anti-insomnia activity pentobarbital-induced mouse model of insomnia assessed as time of sleep latency at 32 mg/kg, ig administered daily for 15 days followed by pentobarbital addition at 1 hr post last dose (reference value: 8.1 +/- 6.06 min); assay type: functional; details: time 15 day
Mus musculus [13] = experiment: Anti-insomnia activity pentobarbital-induced mouse model of insomnia assessed as sleep rate at 32 mg/kg, ig administered daily for 15 days followed by pentobarbital addition at 1 hr post last dose relative to control; assay type: functional; details: time 15 day
Mus musculus [14] = experiment: Anti-insomnia activity pentobarbital-induced mouse model of insomnia assessed as time of sleep duration at 8 mg/kg, ig administered daily for 15 days followed by pentobarbital addition at 1 hr post last dose (reference value: 17.1 +/- 5.15 min); assay type: functional; details: time 15 day
[15] = Antitumor activity against human Lewis lung cancer cells xenografted in BALB/c mouse assessed as tumor growth inhibition at 20 mg/kg, ig administered every day for 10 days relative to control; details: Lewis lung carcinoma, po, 240 h, read-out: TGI
[16] = Toxicity in human H22 cells xenografted KM mouse assessed as survival rate at 20 mg/kg, ig administered every day for 10 days relative to control; details: in vivo, po
[17] = Toxicity in human Lewis lung cancer cells xenografted BALB/c mouse assessed as survival rate at 20 mg/kg, ig administered every day for 10 days (reference value: 100%); details: in vivo, po
[18] = Antitumor activity against human H22 cells xenografted in KM mouse assessed as tumor growth inhibition at 20 mg/kg, ig administered every day for 10 days relative to control; details: H22, po, 240 h, read-out: TGI
Mus musculus [19] = experiment: Anti-insomnia activity pentobarbital-induced mouse model of insomnia assessed as sleep rate at 0.029 mg/kg, ig administered daily for 15 days followed by pentobarbital addition at 1 hr post last dose relative to control; assay type: functional; details: time 15 day
Mus musculus [20] = experiment: Anti-insomnia activity pentobarbital-induced mouse model of insomnia assessed as time of sleep latency at 0.029 mg/kg, ig administered daily for 15 days followed by pentobarbital addition at 1 hr post last dose (reference value: 8.1 +/- 6.06 min); assay type: functional; details: time 15 day
Mus musculus [21] = experiment: Anti-insomnia activity pentobarbital-induced mouse model of insomnia assessed as number of forelimb lifts at 0.029 mg/kg, ig administered daily for 15 days followed by pentobarbital addition at 1 hr post last dose (reference value: 9.2 +/- 4.31); assay type: functional; details: time 15 day
Mus musculus [22] = experiment: Anti-insomnia activity pentobarbital-induced mouse model of insomnia assessed as time of sleep duration at 0.029 mg/kg, ig administered daily for 15 days followed by pentobarbital addition at 1 hr post last dose (reference value: 17.1 +/- 5.15 min); assay type: functional; details: time 15 day

## CC(C)[C@@H](C)/C=C/[C@@H](C)[C@H]1CC[C@H]2C3=CC(=O)[C@@]4(O)C[C@@H](O)CC[C@]4(C)[C@H]3CC[C@]12C
HepG2
  inhibition of growth at 12.5 µg/mL: 100%
A549
  inhibition of growth at 12.5 µg/mL: 100%

## OCCNc1ncnc2c1ncn2[C@@H]1O[C@H](CO)[C@@H](O)[C@H]1O
Mus musculus [1]
  Time: 34.5 min
Mus musculus [2]
  Activity: 20%
Mus musculus [3]
  Time: 5.2 min
Mus musculus [4]
  Activity: 3.3
Mus musculus [5]
  Activity: Dose-dependent effect
Mus musculus [6]
  Time: 5.7 min
Mus musculus [7]
  Time: 26.2 min
Mus musculus [8]
  Activity: 9
Mus musculus [9]
  Activity: 3.9
Mus musculus [10]
  Activity: Dose-dependent effect
Mus musculus [11]
  Activity: 40%
Mus musculus [12]
  Time: 5.1 min
Mus musculus [13]
  Activity: 60%
Mus musculus [14]
  Time: 24.2 min

## C/C(=C\[C@@H](C)[C@H]1CC[C@@H]2[C@]1(C)CC[C@H]1[C@]23C=C[C@]2(C[C@@H](O)CC[C@]12C)OO3)[C@H](C)C(C)C
HepG2
  inhibition of growth at 12.5 µg/mL: 100%
A549
  inhibition of growth at 12.5 µg/mL: 100%

## O=P1(N(CCCl)CCCl)NCCCO1 (stereo unspecified) [CYCLOPHOSPHAMIDE ANHYDROUS]
[15]
  inhibition in vivo at 20 mg/kg: 46.3%
[16]
  survival at 240 h: 100%
[17]
  survival at 240 h: 100%
[18]
  inhibition in vivo at 20 mg/kg: 52.9%

## Clc1ccc2c(c1)C(c1ccccc1)=NCc1nncn1-2 [ESTAZOLAM]
Mus musculus [19]
  Activity: 60%
Mus musculus [20]
  Time: 5.9 min
Mus musculus [21]
  Activity: 4.1
Mus musculus [22]
  Time: 26 min
